# Source: patent publication US20210329894A1, “METHOD FOR PREPARING ALZHEIMER'S DISEASE (AD) ANIMAL MODEL” (Shanxi Medical University, priority 2020, published 2021)
# Columns and labels:
# Type in all cases: in vivo
# [1] = system: ApoE4 transgenic mice (KI); assay: new object recognition test; conditions: 4 mmol/L Al(mal)3 i.p. 10 ml/kg, 60 days, testing session T2, 1 h after training, compared among all groups
# Description: (§1) Example 1 Establishment of aluminum-exposed ApoE4 transgenic mouse model 16 healthy male ApoE4 transgenic mice (KI), 16 ApoE knockout mice (KO) and 16 wild-type mice (C57BL/6J, WT) aged 4 to 5 weeks were selected, with similar activities and weights of 18 g to 20 g. They were randomly divided into control group (NS) and aluminum-exposed group (Al), with 8 animals in each group.
# (§2) An 8 mmol/L aluminum chloride solution and a 24 mmol/L maltol solution were prepared with sterilized triple distilled water, then the two solutions were mixed in a volume ratio of 1:1 to obtain a Al(mal)3 solution with a final concentration of 4 mmol/L, and pH was adjusted to 7.4 with 10% NaOH. […]
# In this example, a new object recognition test was conducted on the basis of the above examples. […] The time periods for a mouse to explore the two areas were both recorded by a recording instrument, and the recording time was set to 10 min, after which the mouse was taken out and put back in the original cage. […] Testing session (T2): 1 h after the training session ended, one of the cubes was replaced with a cone, the mouse was placed in exactly the same way as the training session, and the time periods for the mouse to explore two different objects were recorded as a new object recognition time (New, N) and a familiar object time (Familiar, F). […]
# Aβ42 = assay: determination of Aβ42 content in the hippocampus (Elisa kit); conditions: KI mice, 4 mmol/L Al(mal)3 i.p. 10 ml/kg, 60 days
# Description: as §1
# (§3) An 8 mmol/L aluminum chloride solution and a 24 mmol/L maltol solution were prepared with sterilized triple distilled water, then the two solutions were mixed in a volume ratio of 1:1 to obtain a Al(mal)3 solution with a final concentration of 4 mmol/L, and pH was adjusted to 7.4 with 10% NaOH. The animals in the aluminum-exposed group were intraperitoneally injected with the Al(mal)3 at a volume of 10 ml/kg, with aluminum exposure for 60 days, and interval time of 2 days for every 5 days; and the control group was given the same volume of normal saline (NS).
# This example was different from the above examples in that the determination of Aβ42 content was added. The hippocampus tissue of a mouse was stripped, and crushed with an ultrasonic processor; the hippocampal tissue protein was extracted with a tissue protein extraction reagent; and the Aβ42 content in the hippocampus was detected with an Aβ42 protein Elisa kit.
# [2] = determination of aluminum content in the brain (ICP-MS); conditions: each aluminum-exposed group (KI, KO, WT mice), 4 mmol/L Al(mal)3 i.p. 10 ml/kg, 60 days; vs control group
# Description: as §1, §2
# This example was different from the above Example in that the determination of aluminum content in the brain was added. 60 mg of mouse brain tissue was weighed and put into a microwave digestion tube, 3 ml of nitric acid (guaranteed reagent) was added, and the tube was put in a microwave digestion system for microwave digestion according to a program; after digestion, the solution was filtered with a 0.22 μm microporous filter, and a resulting filtrate was collected in a 5 ml deionized centrifuge tube and then diluted to […] with nitric acid (guaranteed reagent); and the sample was diluted 25 times with Wahaha water, and aluminum content was detected with ICP-MS.
# [3] = system: ApoE4 transgenic mice (KI); assay: Morris water maze (place navigation test and space exploration experiment); conditions: 4 mmol/L Al(mal)3 i.p. 10 ml/kg
# Description: as §1, §3
# This example was different from Example 1 in that a Morris water maze experiment and a place navigation test were added. […]
# tau-5 = assay: expression level of tau-5 in the hippocampus (Western blot); conditions: KI mice, 4 mmol/L Al(mal)3 i.p. 10 ml/kg, 60 days; relative expression by Western blot
# Description: as §1, §3
# (§4) This example was different from the above examples in that the determination of expression levels of Tau proteins in the brain was added. The tau-5 and pThr181 levels in animals of each group were determined by Western blot. […] The gray value was analyzed with Quantity one software, and the relative expression level of protein was calculated.
# pThr181 = assay: expression level of pThr181 in the hippocampus (Western blot); conditions: KI mice, 4 mmol/L Al(mal)3 i.p. 10 ml/kg, 60 days; relative expression by Western blot
# Description: as §1, §3, §4
smiles,measurement,setting,value
"Cc1occc(=O)c1[O][Al]([O]c1c(C)occc1=O)[O]c1c(C)occc1=O [Al, Al(mal)3]",discrimination index (DI),[1],lowest DI
same,Aβ42 content in the hippocampus,Aβ42,significantly increased
same,brain aluminum content,[2],significantly higher
same,escape latency (time to find the platform),"[3]; 60 days exposure, days 4 and 5 of training, vs control group",significantly longer
same,number of crossing the platform,"[3]; 60 days, space exploration experiment, 60 s, compared among all groups",least number of crossing the platform
same,expression level of tau-5 in the hippocampus,tau-5,significantly increased
same,expression level of pThr181 in the hippocampus,pThr181,significantly increased
